Measurements taken from ChEMBL document CHEMBL1201862, “PubChem BioAssay data set” (2004).
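Five compound concentrations were applied to cells in 96-well plates for 48 hours; endpoints were derived by simple linear interpolation of the resulting dose-response curve. Here, GI50 denotes the concentration required for 50% inhibition of growth.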 Calls of active or inactive are those of the source. Cut-off read from the data, not from the text of the source: active = GI50 up to about 1.1 µM and inactive = higher.

How the values were obtained:
Experiment in all cases: NCI anticancer screen, dose series, 48 h
SF-539 = test system: SF-539
SNB-19 = test system: SNB-19
HCC 2998 = test system: HCC 2998
OVCAR-4 = test system: OVCAR-4
HOP-62 = test system: HOP-62
EKVX = test system: EKVX
UACC-62 = test system: UACC-62
NCI-H226 = test system: NCI-H226
RXF 393 = test system: RXF 393
SNB-75 = test system: SNB-75
SF-295 = test system: SF-295
ACHN = test system: ACHN
LOX IMVI = test system: LOX IMVI
NCI-H522 = test system: NCI-H522
HL-60 = test system: HL-60

Measured: GI50

Cc1ccc(NC(=O)C(=O)Cc2nc3ccccc3o2)c(C)c1
inactive: SF-539 > 100 µM | SNB-19 > 100 µM | HCC 2998 > 100 µM | OVCAR-4 > 100 µM | HOP-62 > 100 µM | EKVX > 100 µM | UACC-62 > 100 µM | NCI-H226 > 100 µM | RXF 393 > 100 µM | SNB-75 > 100 µM | SF-295 > 100 µM | ACHN > 100 µM | LOX IMVI > 100 µM

COc1ccc(/C=C/CN(C)CCc2ccccc2)cc1OC
inactive: SNB-19 > 100 µM | HCC 2998 32.1 µM | EKVX > 100 µM | UACC-62 > 100 µM | NCI-H226 > 100 µM | RXF 393 51.2 µM | SNB-75 25.9 µM | SF-295 53.5 µM | ACHN > 100 µM

O=C(CCc1n[nH]c(=S)o1)Nc1cc(Cl)c(Cl)cc1Cl
inactive: SF-539 52.7 µM | SNB-19 > 100 µM | HCC 2998 > 100 µM | OVCAR-4 > 100 µM | HOP-62 50.8 µM | EKVX 36.9 µM | UACC-62 21.9 µM | NCI-H226 66.4 µM | NCI-H522 71.9 µM | SNB-75 89.1 µM | SF-295 > 100 µM | ACHN 40.5 µM | HL-60 33.3 µM

O=C1CCC2CCc3cccc4oc1c2c34 (configuration not stated)
inactive: SF-539 > 100 µM | SNB-19 > 100 µM | HCC 2998 > 100 µM | OVCAR-4 > 100 µM | HOP-62 > 100 µM | EKVX 74.1 µM | UACC-62 > 100 µM | RXF 393 > 100 µM | SNB-75 > 100 µM | SF-295 10.6 µM | ACHN > 100 µM | HL-60 > 100 µM | LOX IMVI > 100 µM

COCCNC(=O)C1C(=O)C(=O)N(CCOC)C1=O (configuration not stated)
inactive: SF-539 > 100 µM | SNB-19 > 100 µM | HCC 2998 > 100 µM | OVCAR-4 > 100 µM | HOP-62 > 100 µM | EKVX > 100 µM | UACC-62 > 100 µM | NCI-H226 > 100 µM | RXF 393 > 100 µM | NCI-H522 > 100 µM | SNB-75 > 100 µM | SF-295 > 100 µM | ACHN > 100 µM | LOX IMVI > 100 µM

O=C(O)CCSC(=O)Nc1cccc([N+](=O)[O-])c1
inactive: SF-539 > 100 µM | SNB-19 > 100 µM | HCC 2998 > 100 µM | OVCAR-4 60.8 µM | HOP-62 > 100 µM | EKVX > 100 µM | RXF 393 > 100 µM | SNB-75 > 100 µM | SF-295 > 100 µM | ACHN 52.7 µM | HL-60 > 100 µM | LOX IMVI 66.7 µM

CCOc1ccc([Se][Se]c2ccc(OCC)cc2)cc1
inactive: SF-539 > 100 µM | SNB-19 > 100 µM | HCC 2998 > 100 µM | OVCAR-4 > 100 µM | EKVX > 100 µM | UACC-62 95.7 µM | NCI-H226 44.2 µM | RXF 393 35.5 µM | NCI-H522 46 µM | SNB-75 96.4 µM | SF-295 > 100 µM

CCOC(=O)C(NC(=O)c1nc[nH]c1[N+](=O)[O-])C(C)C (configuration not stated)
inactive: SF-539 > 100 µM | SNB-19 > 100 µM | HCC 2998 66.4 µM | OVCAR-4 > 100 µM | HOP-62 > 100 µM | EKVX 94 µM | UACC-62 > 100 µM | NCI-H226 30.8 µM | NCI-H522 > 100 µM | SNB-75 > 100 µM | SF-295 47.9 µM | ACHN > 100 µM | HL-60 27.6 µM | LOX IMVI > 100 µM

O=C(COc1ccccc1Cl)N1N=C(c2ccc(Cl)cc2)CC1(O)c1ccccc1 (configuration not stated)
inactive: SF-539 > 100 µM | SNB-19 > 100 µM | HCC 2998 > 100 µM | OVCAR-4 > 100 µM | HOP-62 > 100 µM | UACC-62 > 100 µM | NCI-H226 > 100 µM | NCI-H522 > 100 µM | SNB-75 > 100 µM | SF-295 > 100 µM | ACHN > 100 µM | HL-60 > 100 µM | LOX IMVI > 100 µM
